Data set [1] can be described thus: Visual observation of wettability by stereomicroscope. It is filed as physicochemical. As to conditions: one drop of distillate water on 0.1 mg powder.
Data set [2] in a line: Comparative dissolution test in distillate water. As to conditions: UV-VIS. In kind it is physicochemical. The protocol:
The suspension was stirred for 1, 5, 10, 20 and 60 minutes and then it was filtered by 0.2 μm disposable syringe filter. Telmisartan concentration was determined by UV-VIS spectrophotometer (Agilent 8453).

For data set [3] the following is noted: cited from earlier work.
For data set [4] the following is noted: cited from earlier work. The source holds these as a separate data set.
Data set [5] has as its system plasma proteins, mainly albumin and α1—acid glycoprotein. As to conditions: cited from earlier work.
A short description of a further data set: in vivo. The conditions noted are these: male, Wistar, rat, po, 30 mg/kg.

Results on one compound are retold here after patent US20120135053A1, “NANOPARTICULATE TELMISARTAN COMPOSITIONS AND PROCESS FOR THE PREPARATION THEREOF” (priority 2009, published 2012).

Molecules are shown by their SMILES. Like-named read-outs stand apart in the source and are kept apart here.

Protocol for in vivo: Both test substances were administered via gastric tube in a dosing volume of 5 ml/kg. The vehicle of the test items was sterile 0.9% NaCl solution and the suspension was kept homogenous by continuous stirring during treatment in order to minimize the error resulting from the sedimentation.
Male Wistar rats (purchased from Laboratory Animal Center, University of Szeged) were maintained on a standard pellet rodent diet (Bioplan Ltd, Isaszeg, Hungary) under temperature and light-controlled conditions with tap water available ad libitum. The acclimatization period was at least 4 days. […] All animals were fasting for 16 hours before oral treatment. […] Water was available immediately after treatment for all animals. […] Serum samples were prepared by centrifugation (7000 rpm, 10 min, 4° C.) of the clotted blood within 60 minutes and were stored at −20° C. till analysis.
An aliquot of 200 μl serum was combined with 20 μl of internal standard working solution and 1.2 ml acetonitrile for protein precipitation. The mixture was vortexed for 1 min and centrifuged at 12000 rpm for 10 min at 4° C. The supernatants were evaporated to dryness under a stream of nitrogen at 40° C. and reconstituted with 200 μl of water—methanol (50:50 v/v) and 20 μl was injected into the HPLC system.
Unpaired t-test was used to statistically compare the serum concentrations belonging to the same time points. […]

A word on the AUC: it is concentration integrated over time. A high value points to more exposure. As to `CCCc1nc2c(C)cc(-c3nc4ccccc4n3C)cc2n1Cc1ccc(-c2ccccc2C(=O)O)cc1` [Telmisartan, 4′-[(1,4′-dimethyl-2′-propyl [2,6′-bi-1H-benzimidazol]-1′-yl)methyl]-[1,1′-biphenyl]-2-carboxylic acid], the wettability entry in data set [1] is on record as “stayed in their aggregated state”. Moreover, the “dissolved Telmisartan content” value in data set [2] is given as “cannot be detected”. In addition, the “reduction in AUC by food” value is “about 6%” in data set [3] (40 mg tablet) and “about 20%” in data set [3] (160 mg dose). Further, the absolute bioavailability is reported as 42% in data set [3] (40 mg) and 58% in data set [3] (160 mg). Further, the “glucuronide share of the measured radioactivity in plasma” value in data set [3] (after a single dose) is reported as “approximately 11%”. Moreover, the “involvement of cytochrome P450 isoenzymes in metabolism” value in data set [3] (in vivo) is reported as “not involved”. The “terminal elimination half life” value in data set [3] (in vivo) was “approximately 24 hours”. The total plasma clearance in data set [3] (in vivo) is above 800 mL/min. Also, the volume of distribution entry in data set [3] (in vivo) is on record as “approximately 500 liters”. Besides, the “amount found in urine, % of total radioactivity” value is 0.91% in data set [3] (intravenous 14C-labeled Telmisartan) and 0.49% in data set [3] (oral 14C-labeled Telmisartan). In addition, in data set [3] (intravenous or oral 14C-labeled Telmisartan), the “administered dose eliminated unchanged in feces via biliary excretion” value was above 97%. Also, the “plasma concentrations with once daily dosing, % of peak plasma concentrations” value in data set [3] (once daily dosing) was 10-25%. Further, in data set [3] (repeated once daily dosing), the “accumulation index in plasma” value was 1.5 to 2.0. Also, the solubility entry in data set [4] (hydrochloric acid) is given as “insoluble”; in data set [4] (strong acid), “sparingly soluble”; in data set [4] (strong base), “soluble”; in data set [4] (water and pH range of 3 to 9), “practically insoluble”. Besides, the plasma protein binding in data set [5] is recorded as above 99.5%. Further, the area under the curve (AUC) in the data set “in vivo” was 15700 ng·h/mL.
